Results on 26 compounds are retold here after patent US9266835B2, “Quinoline derivatives useful as CB-1 inverse agonists” (JANSSEN PHARMACEUTICA NV, priority 2014, dated 2016).

Assay [1] has as its target Human CB1R (Cannabinoid receptor 1) (Homo sapiens (Human), UniProt P21554). Kind of assay: CB-1 in vitro cAMP assay (HTRF), inverse agonism. Type of assay: cell-based. Conditions: mean where tested more than once.
Assay [2] deals with Human CB2R (Cannabinoid receptor 2) (Homo sapiens (Human), UniProt P34972). The experiment in a line: CB-2 in vitro cAMP assay (HTRF), inverse agonism. Type of assay: cell-based. The settings on record: mean where tested more than once. On the technique in general: Cyclic AMP is a second messenger, typically raised through Gs and lowered through Gi signalling.

A value given as a limit tells only on which side of the number the result lay.

Sequence of Human CB1R (Cannabinoid receptor 1) (P21554 whole entry): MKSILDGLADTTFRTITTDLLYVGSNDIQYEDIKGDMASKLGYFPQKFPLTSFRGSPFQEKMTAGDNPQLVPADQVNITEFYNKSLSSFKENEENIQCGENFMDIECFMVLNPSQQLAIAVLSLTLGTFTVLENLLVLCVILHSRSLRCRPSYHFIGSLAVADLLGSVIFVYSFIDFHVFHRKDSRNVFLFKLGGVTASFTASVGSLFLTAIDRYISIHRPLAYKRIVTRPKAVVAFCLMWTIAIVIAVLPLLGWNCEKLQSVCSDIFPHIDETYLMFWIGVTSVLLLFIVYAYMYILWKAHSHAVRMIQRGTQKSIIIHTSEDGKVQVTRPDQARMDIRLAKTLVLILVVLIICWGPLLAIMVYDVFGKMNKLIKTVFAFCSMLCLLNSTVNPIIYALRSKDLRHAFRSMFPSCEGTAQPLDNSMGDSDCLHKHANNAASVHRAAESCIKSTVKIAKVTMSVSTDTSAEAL
Sequence of Human CB2R (Cannabinoid receptor 2) (P34972 whole entry): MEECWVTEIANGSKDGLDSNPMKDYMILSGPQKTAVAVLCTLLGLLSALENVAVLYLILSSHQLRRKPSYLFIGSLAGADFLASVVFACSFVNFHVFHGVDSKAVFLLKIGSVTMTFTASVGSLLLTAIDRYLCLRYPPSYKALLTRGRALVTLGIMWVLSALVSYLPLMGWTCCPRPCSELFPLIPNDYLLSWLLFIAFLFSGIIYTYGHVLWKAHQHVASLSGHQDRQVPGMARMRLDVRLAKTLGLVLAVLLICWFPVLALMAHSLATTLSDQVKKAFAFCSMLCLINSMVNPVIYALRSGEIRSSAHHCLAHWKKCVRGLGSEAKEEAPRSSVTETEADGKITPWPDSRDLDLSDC

For orientation: EC50 means the concentration needed to bring the measured effect to its halfway point. Lower therefore signals greater potency. Take `O=c1cc(NC2CCN(S(=O)(=O)C(F)(F)F)CC2)c2cc(C(c3ccc(Cl)cc3)c3ccc(Cl)cc3)cc(Br)c2[nH]1` [Compound 92, 6-(bis(4-chlorophenyl)methyl)-8-bromo-4-((1-((trifluoromethyl)sulfonyl)piperidin-4-yl)amino)quinolin-2(1H)-one]: the EC50 in assay [1] worked out at 10 nM; in assay [2] it was 50 nM.
`O=c1cc(Nc2ccc(CC(F)(F)F)cc2)c2cc(C(c3ccc(Cl)cc3)c3ccc(Cl)cc3)cc(Br)c2[nH]1` [Compound 93]: the EC50 in assay [1] is 15 nM; in assay [2], greater than 10000 nM.
Consider `COCCOc1ccc(Nc2cc(=O)[nH]c3ccc(C(c4ccc(Cl)cc4)c4ccc(Cl)cc4)cc23)cc1` [Compound 94, 6-[Bis(4-chlorophenyl)methyl]-4-{[4-(2-methoxyethoxy)phenyl]-amino}quinolin-2(1H)-one], for which the EC50 was 55 nM in assay [1] and greater than 10000 nM in assay [2].
Take `CCOC(=O)CC(=O)N1CCC(Nc2cc(=O)[nH]c3ccc(C(c4ccc(Cl)cc4)c4ccc(Cl)cc4)cc23)CC1` [Compound 95, Ethyl 3-[4-({6-[bis(4-chlorophenyl)methyl]-2-oxo-1,2-dihydroquinolin-4-yl}amino)piperidin-1-yl]-3-oxopropanoate]: the results for the EC50 in assay [1] and in assay [2] were 13 nM and 3650 nM, respectively.
`O=C(O)CC(=O)N1CCC(Nc2cc(=O)[nH]c3ccc(C(c4ccc(Cl)cc4)c4ccc(Cl)cc4)cc23)CC1` [Compound 96, 3-[4-({6-[Bis(4-chlorophenyl)methyl]-2-oxo-1,2-dihydroquinolin-4-yl}amino)piperidin-1-yl]-3-oxopropanoic acid]: the figures for the EC50 in assay [1] and in assay [2] were 220 nM and greater than 10000 nM, respectively.
Consider `CCOC(=O)CCC(=O)N1CCC(Nc2cc(=O)[nH]c3ccc(C(c4ccc(Cl)cc4)c4ccc(Cl)cc4)cc23)CC1` [Compound 97, ethyl 4-[4-([6-[bis(4-chlorophenyl)methyl]-2-hydroxyquinolin-4-yl]amino)piperidin-1-yl]-4-oxobutanoate], for which the EC50 came out at 31 nM in assay [1] and 9900 nM in assay [2].
As for `O=C(O)CCC(=O)N1CCC(Nc2cc(=O)[nH]c3ccc(C(c4ccc(Cl)cc4)c4ccc(Cl)cc4)cc23)CC1` [Compound 98, 4-(4-((6-(bis(4-chlorophenyl)methyl)-2-oxo-1,2-dihydroquinolin-4-yl)amino)piperidin-1-yl)-4-oxobutanoic acid], the results for the EC50 in assay [1] and in assay [2] were 242 nM and greater than 10000 nM, respectively.
Consider `O=c1cc(NC2CCN(S(=O)(=O)C(F)(F)F)CC2)c2cc(C(c3ccc(Cl)cc3)c3ccc(Cl)cc3)cc(NC3CCN(S(=O)(=O)C(F)(F)F)CC3)c2[nH]1` [Compound 99], for which the EC50 in assay [1] and in assay [2] was greater than 10000 nM in each case.
On to `COCCNc1cc(C(c2ccc(Cl)cc2)c2ccc(Cl)cc2)cc2c(NC3CCN(S(=O)(=O)C(F)(F)F)CC3)cc(=O)[nH]c12` [Compound 100, 6-(bis(4-chlorophenyl)methyl)-8-((2-methoxyethyl)amino)-4-((1-((trifluoromethyl)sulfonyl)piperidin-4-yl)amino)quinolin-2(1H)-one], for which the EC50 in assay [1] was determined as 6 nM; in assay [2] it was 200 nM.
For the compound `COCCNc1ccc(C(c2ccc(Cl)cc2)c2cc(NCCOC)c3[nH]c(=O)cc(NC4CCN(S(=O)(=O)C(F)(F)F)CC4)c3c2)cc1` (stereo not shown) [Compound 101, 6-((4-chlorophenyl)(4-((2-methoxyethyl)amino)phenyl)methyl)-8-((2-methoxyethyl)amino)-4-((1-((trifluoromethyl)sulfonyl)piperidin-4-yl)amino)quinolin-2(1H)-one], the figures for the EC50 in assay [1] and in assay [2] were 15 nM and 910 nM, respectively.
Consider `CCOC(=O)CS(=O)(=O)N1CCC(Nc2cc(=O)[nH]c3ccc(C(c4ccc(Cl)cc4)c4ccc(Cl)cc4)cc23)CC1` [Compound 102, ethyl 2-((4-((6-(bis(4-chlorophenyl)methyl)-2-oxo-1,2-dihydroquinolin-4-yl)amino)piperidin-1-yl)sulfonyl)acetate], for which the EC50 in assay [1] is 17 nM; in assay [2], greater than 10000 nM.
With `CCOC(=O)CCCNc1cc(C(c2ccc(Cl)cc2)c2ccc(Cl)cc2)cc2c(NC3CCN(S(=O)(=O)C(F)(F)F)CC3)cc(=O)[nH]c12` [Compound 104, Ethyl 4-({6-[bis(4-chlorophenyl)methyl]-2-oxo-4-({1-[(trifluoromethyl)sulfonyl]-piperidin-4-yl}amino)-1,2-dihydroquinolin-8-yl}amino)butanoate], the results for the EC50 in assay [1] and in assay [2] were 1120 nM and greater than 10000 nM, respectively.
Regarding `CC(C)(C)OC(=O)COc1ccc(Nc2cc(=O)[nH]c3ccc(C(c4ccc(Cl)cc4)c4ccc(Cl)cc4)cc23)cc1` [Compound 105, tert-butyl 2-(4-((6-(bis(4-chlorophenyl)methyl)-2-oxo-1,2-dihydroquinolin-4-yl)amino)phenoxy)acetate], the values for the EC50 in assay [1] and in assay [2] were 95 nM and greater than 10000 nM, respectively.
The corresponding values for `NC(=O)CC(=O)N1CCC(Nc2cc(=O)[nH]c3ccc(C(c4ccc(Cl)cc4)c4ccc(Cl)cc4)cc23)CC1` [Compound 106, 3-(4-((6-(bis(4-chlorophenyl)methyl)-2-oxo-1,2-dihydroquinolin-4-yl)amino)piperidin-1-yl)-3-oxopropanamide] are 1550 nM and 6500 nM.
As for `O=C1CCCN1c1cc(C(c2ccc(Cl)cc2)c2ccc(Cl)cc2)cc2c(NC3CCN(S(=O)(=O)C(F)(F)F)CC3)cc(=O)[nH]c12` [Compound 107, 6-(bis(4-chlorophenyl)methyl)-8-(2-oxopyrrolidin-1-yl)-4-((1-((trifluoromethyl)sulfonyl)piperidin-4-yl)amino)quinolin-2(1H)-one], the EC50 in assay [1] came to 52 nM; in assay [2], 670 nM.
`O=C(O)CCCNc1cc(C(c2ccc(Cl)cc2)c2ccc(Cl)cc2)cc2c(NC3CCN(S(=O)(=O)C(F)(F)F)CC3)cc(=O)[nH]c12` [Compound 108, 4-((6-(bis(4-chlorophenyl)methyl)-2-oxo-4-((1-((trifluoromethyl)sulfonyl)piperidin-4-yl)amino)-1,2-dihydroquinolin-8-yl)amino)butanoic acid]: the concentration giving a half-maximal response (EC50) in assay [1] is 310 nM; in assay [2], 460 nM.
For the compound `O=C(O)COc1ccc(Nc2cc(=O)[nH]c3ccc(C(c4ccc(Cl)cc4)c4ccc(Cl)cc4)cc23)cc1` [Compound 109, 2-(4-((6-(bis(4-chlorophenyl)methyl)-2-oxo-1,2-dihydroquinolin-4-yl)amino)phenoxy)acetic acid], the EC50 in assay [1] was 5120 nM; in assay [2], greater than 10000 nM.
On to `COCCn1c(=O)cc(NC2CCN(S(=O)(=O)C(F)(F)F)CC2)c2cc(C(c3ccc(Cl)cc3)c3ccc(Cl)cc3)ccc21` [Compound 110, 6-(bis(4-chlorophenyl)methyl)-1-(2-methoxyethyl)-4-((1-((trifluoromethyl)sulfonyl)piperidin-4-yl)amino)quinolin-2(1H)-one], for which the figures for the EC50 in assay [1] and in assay [2] were 228 nM and greater than 10000 nM, respectively.
The corresponding values for `NC(=O)COc1ccc(Nc2cc(=O)[nH]c3ccc(C(c4ccc(Cl)cc4)c4ccc(Cl)cc4)cc23)cc1` [Compound 111, 2-(4-((6-(bis(4-chlorophenyl)methyl)-2-oxo-1,2-dihydroquinolin-4-yl)amino)phenoxy)acetamide] are 99 nM and greater than 10000 nM.
On to `NC(=O)CCC(=O)N1CCC(Nc2cc(=O)[nH]c3ccc(C(c4ccc(Cl)cc4)c4ccc(Cl)cc4)cc23)CC1` [Compound 112, 4-[4-({6-[Bis(4-chlorophenyl)methyl]-2-oxo-1,2-dihydroquinolin-4-yl}amino)piperidin-1-yl]-4-oxobutanamide], for which the EC50 in assay [1] is 302 nM; in assay [2] it was greater than 10000 nM.
In the case of `COC(=O)c1ccc(C(=O)N2CCC(Nc3cc(=O)[nH]c4ccc(C(c5ccc(Cl)cc5)c5ccc(Cl)cc5)cc34)CC2)cc1` [Compound 113, Methyl 4-{[4-({6-[bis(4-chlorophenyl)methyl]-2-oxo-1,2-dihydroquinolin-4-yl}amino)piperidin-1-yl]carbonyl}benzoate], the results for the EC50 in assay [1] and in assay [2] were 25 nM and greater than 10000 nM, respectively.
Regarding `CC(C)(C)OC(=O)CCN1CCC(Nc2cc(=O)[nH]c3ccc(C(c4ccc(Cl)cc4)c4ccc(Cl)cc4)cc23)CC1` [Compound 114, tert-butyl 3-(4-((6-(bis(4-chlorophenyl)methyl)-2-oxo-1,2-dihydroquinolin-4-yl)amino)piperidin-1-yl)propanoate], the values for the EC50 in assay [1] and in assay [2] were 103 nM and greater than 10000 nM, respectively.
For the compound `O=C(O)CCN1CCC(Nc2cc(=O)[nH]c3ccc(C(c4ccc(Cl)cc4)c4ccc(Cl)cc4)cc23)CC1` [Compound 115, 3-[4-({6-[Bis(4-chlorophenyl)methyl]-2-oxo-1,2-dihydroquinolin-4-yl}amino)piperidin-1-yl]propanoic acid], the EC50 in assay [1] and in assay [2] was greater than 10000 nM in each case.
In the case of `O=C(O)c1ccc(C(=O)N2CCC(Nc3cc(=O)[nH]c4ccc(C(c5ccc(Cl)cc5)c5ccc(Cl)cc5)cc34)CC2)cc1` [Compound 116, 4-{[4-({6-[Bis(4-chlorophenyl)methyl]-2-oxo-1,2-dihydroquinolin-4-yl}amino)piperidin-1-yl]carbonyl}benzoic acid], the EC50 in assay [1] was 438 nM; in assay [2] it was greater than 10000 nM.
In the same order, the values of `O=C(O)CN1CCC(Nc2cc(=O)[nH]c3ccc(C(c4ccc(Cl)cc4)c4ccc(Cl)cc4)cc23)CC1` [Compound 117, [4-({6-[Bis(4-chlorophenyl)methyl]-2-oxo-1,2-dihydroquinolin-4-yl}amino)piperidin-1-yl]acetic acid] are 9700 nM and greater than 10000 nM.
For `CC(C)(C)OC(=O)/N=C(/NC(=O)OC(C)(C)C)N1CCC(Nc2cc(=O)[nH]c3ccc(C(c4ccc(Cl)cc4)c4ccc(Cl)cc4)cc23)CC1` [Compound 119, (Z)-tert-butyl ((4-((6-(bis(4-chlorophenyl)methyl)-2-oxo-1,2-dihydroquinolin-4-yl)amino)piperidin-1-yl)((tert-butoxycarbonyl)imino)methyl)carbamate], the EC50 in assay [1] is 128 nM; in assay [2] it was greater than 10000 nM.
